# Reference: patent publication US6855727B2, “Muscular fatigue-controlling composition and method for providing muscular fatigue-controlling effect” (Yaizu Suisankagaku Industry Co., Ltd., priority 2000, dated 2005)
# Experiment: lactic acid amount in plasma after loading of exercise
# Format: in vivo
# Settings: Test Example 2; mice, 200 mg/kg oral (total amount); 1 hour after loading of exercise (FIG. 6)
# Procedure: Further, when 1 hour passed after the loading of exercise, the blood was collected and the plasma was separated, and the lactic acid amount in the plasma was measured. The measurement of lactic acid amount was carried out with a commercially available kit (trade name: “F-kit L-lactic acid”; manufactured by Beringer Mannheim Co.). […] Further, when 1 hour passed after the loading of exercise, the blood was collected and the plasma was separated, and the lactic acid amount in the plasma was measured in the same manner as in TEST EXAMPLE 1.
structure (smiles),measurement,value
"O=C[C@H](O)[C@H](O)[C@H](O)CO [ribose, D-ribose]","lactic acid amount in the plasma, decrease as compared with the control group",29.4%
